Patent US7264629B2, “Photodynamic therapy for the treatment of hair loss” (QLT, Inc., priority 2001, dated 2007)

Legend:
shaved Balb/C mice = test: PDT-induced stimulation of hair growth using topically-applied photosensitizer in shaved Balb/c mice; assay type: in vivo
Method: To prepare QLT 0074-containing ointment, QLT 0074 photosensitizer was dissolved in glacial acetic acid to solubilize it. The solution was then frozen in a dry ice/isopropanol bath and the acetic acid was removed by lyophilization. The resultant material was a fine fluffy powder. […] The ointment base was prepared by first warming polyethylene glycol 200 (PEG 200) to 80-90° C. with stirring. Polyethylene glycol 3350 (PEG 3.35 K) was then added with stirring, followed by oleyl alcohol, and then diethylene glycol monoethyl ether. Stirring was continued until the solution was clear. The ointment base was cooled to approximately 50° C., and the QLT 0074 was added with stirring. Stirring was continued as the mixture cooled, until a homogenous paste was achieved. […]
Female Balb/C mice (8-14 weeks old) were supplied by Charles River Canada (St. Constance, Quebec). […] Mice were randomly assigned to PDT treatment and controlled groups, and were monitored for pain or distress.
Eighteen mice were shaved to remove hair from the back and both flanks. […] QLT 0074-containing ointment was applied to a square spot on the left side of each of mice 1-9 using a square template, with the same quantity of ointment applied to each spot. […]

[1] = test system: shaved female Balb/c mice; test: Optimization of drug concentration, irradiation dose and light intensity on hair regrowth in shaved mice, topical QLT 0074; assay type: in vivo; details: for hair regrowth at the treatment site: 0.5% ointment
Method: A study was performed to assess the effect of drug concentration (0.005, 0.05, or 0.5% QLT 0074 ointment), light dose (50, 100 or 150 J/cm^2 red light) and light intensity 50 or 200 mW/cm) on hair regrowth in shaved female Balb/c mice. Mice received QLT 0074 ointment applied to the skin for 30 minutes, followed by a 15-minute treatment with placebo ointment and exposure to red light (688 nm). One group received no QLT 0074 ointment, only the placebo ointment and light exposure. Preparation of ointments and treatment procedure was as outlined in Example 2, except that different amounts of QLT 0074 were added.
Ointments were prepared as in Example 2, except that different amounts of QLT 0074 (on a weight/weight basis) were incorporated into the ointments. The treatment procedure was as outlined in Example 2.

[2] = test system: C3H/HeJ female mice exhibiting hair loss; test: Stimulation of hair growth in a mouse model of alopecia areata (topical PDT); assay type: in vivo; details: 0.2% (w/w) ointment
From the text: A disease closely resembling human alopecia areata has been observed in aging (over 6-month old) C3H/HeJ mice (see Sundberg, J. P et al, Alopecia Areata in Aging C3H/HeJ Mice, Journal of Investigative Dermatology 102(6): 847-856 [1994[). […] All other areas outside of the treatment site were left untreated.
Following this treatment, all 3 mice received a dose of 50 J/cm^2 688 nm light delivered at a rate of 50 mw/cm^2 in the 1.5 square area. Mice were monitored for skin photosensitivity reactions on Days 1 and 3 after light exposure and observed for hair re-growth for up to 19 days post-treatment.

[3] = test system: human males with type II or III Vertex alopecia (AGA); test: Stimulation of hair growth in human subjects with AGA (single topical PDT, terminal hair counts); assay type: in vivo; details: 0.2% w/w ointment, 50 and 75 J/cm^2; 10 subjects; during and after treatment
Method: A total of 10 subjects were treated. All subjects were human males over 18 years of age and had type II or III Vertex alopecia, rated according to the modified Hamilton-Norwood scale. All subjects received a single application of topical QLT0074 ointment 0.2% weight in weight (w/w) to two of three circular test sites on the vertex area of the scalp. The amount of ointment applied to each test site was approximately 224 mg (about 0.44 mg of photosensitizer per test site). After 2 hours the excess drug was removed and red light (LED's—690 nm) was administered to two of the three sites. The other test site served as a control with no drug or light administration.
Two light dose cohorts (50 and 75 J/cm^2) were investigated with each cohort having 5 subjects.
Safety was assessed by monitoring all adverse events during and after the treatment.
The efficacy was assessed by hair counts 3 months after the treatment and compared to baseline counts.

patients = details: topical 0.5% HP and UVA three times a week; first week of treatment; two patients; cited from earlier work
alopecia areata patients = details: 2% khellin and UVA, cited from earlier work

In the case of `C=Cc1c(C)c2cc3nc(cc4[nH]c(cc5nc(cc1[nH]2)C(C)=C5CCC(=O)OCCO)c(CCC(=O)OCCO)c4C)[C@@]1(C)C3=CC=C(C(=O)OC)[C@H]1C(=O)OC` [QLT 0074], the “hair re-growth, representative mouse (FIG. 4)” value (shaved Balb/C mice; 17 days after PDT treatment) is reported as “Hair re-growth was observed”, the “number of mice that developed hair growth on the treated area by day 17” value (shaved Balb/C mice; out of nine mice, 0.5% w/w ointment 30 min, 688 nm 50 J/cm^2 at 200 mW/cm^2) is reported as “five” and the hair growth ([1]; 0.05% ointment, any light dose) is reported as “did not exhibit hair growth”. The “hair regrowth at the treatment site” value ([1]; 50, 100 or 150 J/cm^2 at 200 mW/cm^2) was “Hair regrowth at the treatment site was observed”, the “hair regrowth at the treatment site” value ([1]; 50 or 100 J/cm^2 red light at 50 mW/cm^2) was “Hair regrowth at the treatment site was also observed” and the “moderate or severe skin photosensitivity reactions” value ([1]; all drug and light dose combinations) was “no moderate or severe skin photosensitivity reactions were observed”. For the same molecule, the “number of animals with hair regrowth at the treatment site” value ([1]; of three animals, 0.005% ointment, 150 J/cm^2 at 200 mW/cm^2) was “one”, the “skin reactions following treatment” value ([1]; some treatments, typically highest drug and light dose combinations) was “Mild skin reactions were evident” and the skin photosensitivity reactions ([2]; 50 J/cm^2 688 nm at 50 mw/cm^2, Days 1 and 3 after light exposure) was “no skin photosensitivity reactions were observed”. For the same molecule, the “number of mice with increased amount of hair in the treatment area” value ([2]; of the 3 mice treated, day 7 post-treatment, 50 J/cm^2 688 nm) was 2 and the serious adverse events [3] was “No serious adverse events were reported”.
In the case of `CC1=C(CCC(=O)O)c2cc3[nH]c(cc4nc(cc5[nH]c(cc1n2)c(C)c5C(C)O)C(C)=C4C(C)O)c(C)c3CCC(=O)O` (centres unmarked) [hematoporphyrin, Hematoporphyrin], the “skin reactions in treated sites” value (patients) is given as “significant erythema and mild scaling followed by hyperpigmentation”.
For `COc1c2occc2c(OC)c2c(=O)cc(C)oc12` [khellin], the phototoxicity (alopecia areata patients) is given as “did not cause phototoxicity” and the “number of patients treated successfully” value (alopecia areata patients; of the 10 patients tested) is given as 5.
